Test results taken from patent US20120164242A1, “NOVEL METHODS FOR MODULATING MELANIN PRODUCTION” (priority 2010, published 2012).

Test system: melanogenesis related genes
Experiment: RT-PCR mRNA level of melanogenesis related genes in B16-F10 cells
Assay type: cell-based, mouse
Conditions: 100 μM, three days
Protocol: To determine whether THSG had similar effects as the PMT extract on the induction of melanin related gene expression, B16-F10 cells were cultured in medium containing PMT extract (10 μg/mL), THSG (10 μg/mL), naringenin (100 μM) for three days and RT-PCR was performed to analyze melanin biosynthesis related gene expression using the protocol as described in Example 4 above.

O=C1C[C@@H](c2ccc(O)cc2)Oc2cc(O)cc(O)c21 [naringenin]
mRNA level of melanogenesis related genes: no increase
